In the CheMixHub viscosity set:
Several values for one entry are separate records, joined by “and”; a condition that tells them apart may be missing. Equal entries are not always repeated.

Test: xn = mol fraction of the nth substance listed

CCC(O)CO (configuration not stated) + O=C1CCCN1
101.33 kPa
Conditions | viscosity [mPa·s]
298.15 K, x2 = 0.0555 | 46.5
298.15 K, x2 = 0.09272 | 42.92
298.15 K, x2 = 0.2043 | 34.62
298.15 K, x2 = 0.2943 | 29.84
298.15 K, x2 = 0.4023 | 25.54
298.15 K, x2 = 0.508 | 22.41
298.15 K, x2 = 0.6045 | 20.25
298.15 K, x2 = 0.6902 | 18.59
298.15 K, x2 = 0.7968 | 16.74
298.15 K, x2 = 0.8891 | 15.2
298.15 K, x2 = 0.9416 | 14.65
308.15 K, x2 = 0.04722 | 26.34
308.15 K, x2 = 0.1008 | 23.83
308.15 K, x2 = 0.2171 | 19.71
308.15 K, x2 = 0.2992 | 17.63
308.15 K, x2 = 0.6065 | 12.84
308.15 K, x2 = 0.6909 | 11.99
308.15 K, x2 = 0.8019 | 10.94
308.15 K, x2 = 0.886 | 10.18
308.15 K, x2 = 0.9402 | 9.675
318.15 K, x2 = 0.04672 | 15.75
318.15 K, x2 = 0.07619 | 15.07
318.15 K, x2 = 0.2048 | 12.57
318.15 K, x2 = 0.289 | 11.39
318.15 K, x2 = 0.4043 | 10.2
318.15 K, x2 = 0.4992 | 9.411
318.15 K, x2 = 0.6031 | 8.699
318.15 K, x2 = 0.6923 | 8.26
318.15 K, x2 = 0.7988 | 7.666
318.15 K, x2 = 0.8817 | 7.237
318.15 K, x2 = 0.9477 | 6.892

Nc1ccccc1 + O=[N+]([O-])c1ccccc1
298.15 K, 101 kPa
Conditions | viscosity [mPa·s]
x2 = 0.1216 | 3.163
x2 = 0.2269 | 2.741
x2 = 0.4 | 2.328
x2 = 0.5602 | 2.082
x2 = 0.6878 | 1.949
x2 = 0.8353 | 1.889
x2 = 0.9171 | 1.836

CC(C)(C)O + OCC(O)CO
viscosity [mPa·s], 101.33 kPa
Conditions | x2 = 0.1029 | x2 = 0.1996 | x2 = 0.3009 | x2 = 0.4015 | x2 = 0.5001 | x2 = 0.5995 | x2 = 0.6993 | x2 = 0.7992 | x2 = 0.8995
308.15 K | 5.962 | 10.24 | 19.34 | 36.09 | 65.66 | 105.9 | 154.9 | 211.7 | 276
318.15 K | 4.1 | 6.761 | 12.32 | 21.85 | 37.6 | 58.03 | 83.42 | 108.5 | 132.4

NCCN + OCCO
viscosity [mPa·s], 101 kPa
Conditions | x1 = 0.0872 | x1 = 0.17 | x1 = 0.2572 | x1 = 0.3496 | x1 = 0.3568 | x1 = 0.4448 | x1 = 0.547 | x1 = 0.6556 | x1 = 0.7623 | x1 = 0.8792
293.15 K | 27.84 | 34.57 | 40.29 | 40.83 | – | 34.13 | 21.71 | 11.54 | 5.764 | 2.87
298.15 K | 22.44 | 27.12 | 31.13 | 31.21 | – | 26.03 | 16.95 | 9.305 | 4.829 | 2.474
303.15 K | 18.11 | 21.75 | 24.48 | 24.17 | 22.85 | 20.15 | – | 7.547 | 4.093 | 2.165
308.15 K | 14.79 | 17.62 | 19.51 | 19.04 | – | 15.91 | 10.76 | – | 3.514 | 1.914
313.15 K | 12.24 | 14.39 | 15.71 | 15.26 | – | 12.72 | 8.758 | 5.248 | 3.031 | 1.715
318.15 K | 10.22 | 11.87 | 12.84 | 12.3 | – | 10.35 | 7.228 | 4.445 | 2.644 | 1.537
323.15 K | 8.597 | 9.828 | 10.57 | 10.09 | – | 8.503 | 6.053 | 3.8 | 2.317 | 1.383

CCCC[n+]1ccn(C)c1.[Cl][Al-]([Cl])([Cl])[Cl] + [Al+3].[Cl-].[Cl-].[Cl-]
viscosity [mPa·s], 101 kPa
Conditions | 293.15 K | 298.15 K | 303.15 K | 308.15 K | 313.15 K | 318.15 K | 323.15 K
x2 = 0.46 | 30.8 | 27 | 24.1 | 21 | 18.4 | 16.4 | 14.8
x2 = 0.57 | 31.4 | 27.3 | 23.7 | 20.8 | 18.3 | 16.4 | 14.7

CC(C)(C)O + c1ccccc1
Conditions | viscosity [mPa·s]
298.15 K, 101 kPa, x1 = 0.0105 | 0.5986
298.15 K, 101 kPa, x1 = 0.02032 | 0.5966
298.15 K, 101 kPa, x1 = 0.02705 | 0.5958
298.15 K, 101 kPa, x1 = 0.03393 | 0.5954
298.15 K, 101 kPa, x1 = 0.04376 | 0.5954
298.15 K, 101 kPa, x1 = 0.05002 | 0.5954
298.15 K, 101 kPa, x1 = 0.06281 | 0.5966
298.15 K, 101 kPa, x1 = 0.07569 | 0.598
298.15 K, 101 kPa, x1 = 0.08395 | 0.5995
298.15 K, 101 kPa, x1 = 0.1597 | 0.6201
298.15 K, 101 kPa, x1 = 0.2472 | 0.6577
298.15 K, 101 kPa, x1 = 0.5139 | 0.886
298.15 K, 101 kPa, x1 = 0.9027 | 2.579
303 K, 101.3 kPa, x2 = 0.1001 | 2.487
303 K, 101.3 kPa, x2 = 0.2137 | 1.787
303 K, 101.3 kPa, x2 = 0.3033 | 1.395
303 K, 101.3 kPa, x2 = 0.4117 | 1.08
303 K, 101.3 kPa, x2 = 0.5129 | 0.8736
303 K, 101.3 kPa, x2 = 0.6126 | 0.7351
303 K, 101.3 kPa, x2 = 0.7187 | 0.6441
303 K, 101.3 kPa, x2 = 0.8046 | 0.6103
303 K, 101.3 kPa, x2 = 0.8998 | 0.5822
303.2 K, 101.33 kPa, x2 = 0.05 | 2.528
303.2 K, 101.33 kPa, x2 = 0.1 | 1.968
303.2 K, 101.33 kPa, x2 = 0.15 | 1.598
303.2 K, 101.33 kPa, x2 = 0.2 | 1.356
303.2 K, 101.33 kPa, x2 = 0.3 | 1.06
303.2 K, 101.33 kPa, x2 = 0.4 | 0.87
303.2 K, 101.33 kPa, x2 = 0.5 | 0.753
303.2 K, 101.33 kPa, x2 = 0.6 | 0.671
303.2 K, 101.33 kPa, x2 = 0.7 | 0.609
303.2 K, 101.33 kPa, x2 = 0.8 | 0.57
303.2 K, 101.33 kPa, x2 = 0.85 | 0.559
303.2 K, 101.33 kPa, x2 = 0.9 | 0.553
303.2 K, 101.33 kPa, x2 = 0.95 | 0.552

CCNCC + c1ccccc1
viscosity, 101.33 kPa
Conditions | x1 = 0.2 | x1 = 0.4 | x1 = 0.5 | x1 = 0.6 | x1 = 0.8
293.15 K | 0.522 mPa·s and 0.522 mPa·s | 0.44 mPa·s | 0.411 mPa·s and 0.411 mPa·s | 0.387 mPa·s | 0.349 mPa·s
303.15 K | 0.463 mPa·s | 0.393 mPa·s | 0.367 mPa·s | 0.348 mPa·s | 0.314 mPa·s
308.15 K | 0.438 mPa·s and 0.438 mPa·s | 0.374 mPa·s | 0.35 mPa·s and 0.35 mPa·s | 0.333 mPa·s | 0.298 mPa·s

Nc1ccccc1 + c1ccccc1
Conditions | viscosity [mPa·s]
298.15 K, 101 kPa, x1 = 0.1039 | 0.71
298.15 K, 101 kPa, x1 = 0.2282 | 0.83
298.15 K, 101 kPa, x1 = 0.3729 | 1.1
298.15 K, 101 kPa, x1 = 0.4341 | 1.211
298.15 K, 101 kPa, x1 = 0.5562 | 1.483
298.15 K, 101 kPa, x1 = 0.6562 | 1.803
298.15 K, 101 kPa, x1 = 0.7656 | 2.217
298.15 K, 101 kPa, x1 = 0.8661 | 2.767
298.15 K, 101 kPa, x1 = 0.9088 | 3.029
298.15 K, 101 kPa, x2 = 0.01 | 3.64
298.15 K, 101 kPa, x2 = 0.026 | 3.555
298.15 K, 101 kPa, x2 = 0.12 | 2.895
298.15 K, 101 kPa, x2 = 0.205 | 2.461
298.15 K, 101 kPa, x2 = 0.304 | 2.022
298.15 K, 101 kPa, x2 = 0.39 | 1.67
298.15 K, 101 kPa, x2 = 0.468 | 1.448
298.15 K, 101 kPa, x2 = 0.52 | 1.307
298.15 K, 101 kPa, x2 = 0.626 | 1.1
298.15 K, 101 kPa, x2 = 0.662 | 1.056
298.15 K, 101 kPa, x2 = 0.794 | 0.861
298.15 K, 101 kPa, x2 = 0.896 | 0.714
298.15 K, 101.33 kPa, x1 = 0.2 | 0.78
298.15 K, 101.33 kPa, x1 = 0.5 | 1.277
298.15 K, 101.33 kPa, x2 = 0.25 | 2.458
298.15 K, 101.33 kPa, x2 = 0.4 | 1.764
298.15 K, 101.33 kPa, x2 = 0.5 | 1.427
303.15 K, 101 kPa, x1 = 0.1039 | 0.657
303.15 K, 101 kPa, x1 = 0.2282 | 0.781
303.15 K, 101 kPa, x1 = 0.3729 | 0.965
303.15 K, 101 kPa, x1 = 0.4341 | 1.093
303.15 K, 101 kPa, x1 = 0.5562 | 1.371
303.15 K, 101 kPa, x1 = 0.6562 | 1.648
303.15 K, 101 kPa, x1 = 0.7656 | 1.991
303.15 K, 101 kPa, x1 = 0.8661 | 2.495
303.15 K, 101 kPa, x1 = 0.9088 | 2.745
308.15 K, 101 kPa, x1 = 0.1019 | 0.5981
308.15 K, 101 kPa, x1 = 0.1039 | 0.589
308.15 K, 101 kPa, x1 = 0.1492 | 0.6532
308.15 K, 101 kPa, x1 = 0.2282 | 0.736
308.15 K, 101 kPa, x1 = 0.2326 | 0.728
308.15 K, 101 kPa, x1 = 0.267 | 0.7545
308.15 K, 101 kPa, x1 = 0.3462 | 0.8563
308.15 K, 101 kPa, x1 = 0.3729 | 0.91
308.15 K, 101 kPa, x1 = 0.4341 | 1.012
308.15 K, 101 kPa, x1 = 0.4911 | 1.115
308.15 K, 101 kPa, x1 = 0.5562 | 1.224
308.15 K, 101 kPa, x1 = 0.6312 | 1.492
308.15 K, 101 kPa, x1 = 0.6562 | 1.476
308.15 K, 101 kPa, x1 = 0.68 | 1.59
308.15 K, 101 kPa, x1 = 0.7615 | 1.835
308.15 K, 101 kPa, x1 = 0.7656 | 1.79
308.15 K, 101 kPa, x1 = 0.8499 | 2.128
308.15 K, 101 kPa, x1 = 0.8661 | 2.179
308.15 K, 101 kPa, x1 = 0.9088 | 2.443
313.15 K, 101 kPa, x1 = 0.1039 | 0.562
313.15 K, 101 kPa, x1 = 0.2282 | 0.689
313.15 K, 101 kPa, x1 = 0.3729 | 0.842
313.15 K, 101 kPa, x1 = 0.4341 | 0.928
313.15 K, 101 kPa, x1 = 0.5562 | 1.124
313.15 K, 101 kPa, x1 = 0.6562 | 1.337
313.15 K, 101 kPa, x1 = 0.7656 | 1.587
313.15 K, 101 kPa, x1 = 0.8661 | 1.93
313.15 K, 101 kPa, x1 = 0.9088 | 2.103
323.15 K, 101.33 kPa, x1 = 0.2 | 0.541
323.15 K, 101.33 kPa, x1 = 0.5 | 0.792
